Data on four compounds can be found in ChEMBL document CHEMBL3612014, “Discovery of Tyk2 inhibitors via the virtual site-directed fragment-based drug design” (Bioorg Med Chem Lett, 2015).

Molecules are shown by their SMILES.

Series [1] concerns the target T1, Non-receptor tyrosine-protein kinase TYK2 (Homo sapiens, UniProt P29597). The series can be described thus: Inhibition of Tyk2 (unknown origin) at 10 uM.
In series [2] the target is T2, Tyrosine-protein kinase JAK3 (Homo sapiens) (UniProt P52333).
T2 sequence (whole entry): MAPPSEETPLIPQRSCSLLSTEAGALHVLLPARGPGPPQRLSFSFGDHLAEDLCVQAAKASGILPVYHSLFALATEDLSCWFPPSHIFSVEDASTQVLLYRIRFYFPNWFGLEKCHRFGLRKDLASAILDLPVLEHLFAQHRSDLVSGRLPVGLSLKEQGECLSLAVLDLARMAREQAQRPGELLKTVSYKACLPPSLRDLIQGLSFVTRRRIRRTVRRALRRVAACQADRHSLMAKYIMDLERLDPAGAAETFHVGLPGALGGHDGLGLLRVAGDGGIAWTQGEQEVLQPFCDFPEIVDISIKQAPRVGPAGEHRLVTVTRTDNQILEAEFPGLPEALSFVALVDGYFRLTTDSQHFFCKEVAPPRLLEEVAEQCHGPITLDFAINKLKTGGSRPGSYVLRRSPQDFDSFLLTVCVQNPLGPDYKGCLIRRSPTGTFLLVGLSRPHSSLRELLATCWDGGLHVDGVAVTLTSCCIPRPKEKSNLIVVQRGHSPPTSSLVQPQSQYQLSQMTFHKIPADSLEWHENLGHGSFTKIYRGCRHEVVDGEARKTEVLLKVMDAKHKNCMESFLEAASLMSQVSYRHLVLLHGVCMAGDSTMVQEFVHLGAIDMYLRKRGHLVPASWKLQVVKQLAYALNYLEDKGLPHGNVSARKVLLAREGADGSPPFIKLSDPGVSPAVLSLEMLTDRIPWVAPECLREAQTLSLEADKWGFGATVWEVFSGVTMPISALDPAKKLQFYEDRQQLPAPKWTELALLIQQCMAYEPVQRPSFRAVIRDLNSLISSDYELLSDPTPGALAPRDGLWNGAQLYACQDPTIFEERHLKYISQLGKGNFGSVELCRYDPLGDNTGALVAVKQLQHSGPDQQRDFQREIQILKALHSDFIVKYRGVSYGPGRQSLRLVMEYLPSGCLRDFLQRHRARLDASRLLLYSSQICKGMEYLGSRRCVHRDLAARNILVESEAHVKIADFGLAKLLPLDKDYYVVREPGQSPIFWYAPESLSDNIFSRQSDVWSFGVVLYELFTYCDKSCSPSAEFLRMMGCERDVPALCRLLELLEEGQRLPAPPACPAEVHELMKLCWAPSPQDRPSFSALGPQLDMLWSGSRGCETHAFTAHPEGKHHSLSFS
The series can be described thus: Inhibition of JAK3 (unknown origin) at 10 uM.

Series [3] is described as follows: Mean residence time in Sprague-Dawley rat at 5 mg/kg, po. The format is ADME, organism-based. The following applies: in vivo.
The nature of series [4]: Tmax in Sprague-Dawley rat at 5 mg/kg, iv. The format is ADME, organism-based. As to conditions: in vivo.
Series [5] can be described thus: Tmax in Sprague-Dawley rat at 5 mg/kg, po. The class given is ADME, organism-based. The following applies: in vivo.
Series [6] in a line: Terminal half life in Sprague-Dawley rat at 5 mg/kg, po. The format is ADME, organism-based. As to conditions: in vivo, read-out: beta t1/2 (converted).
Series [7] can be described thus: AUC (0 to t) in Sprague-Dawley rat at 5 mg/kg, iv. The following applies: in vivo. The class given is ADME, organism-based.
Series [8] can be described thus: AUC (0 to infinity) in Sprague-Dawley rat at 5 mg/kg, po. The format is ADME, organism-based. Also noted: dose 5 mg/kg, time infinity, route oral. The following applies: in vivo.
Series [9] in a line: AUC (0 to infinity) in Sprague-Dawley rat at 5 mg/kg, iv. Also noted: dose 5 mg/kg, route intravenous, time infinity. The format is ADME, organism-based. As to conditions: in vivo.
The nature of series [10]: Volume of distribution at steady state in Sprague-Dawley rat at 5 mg/kg, iv. The following applies: in vivo, read-out: Vdss. The class given is ADME, organism-based.
The nature of series [11]: Mean residence time in Sprague-Dawley rat at 5 mg/kg, iv. The format is ADME, organism-based. The following applies: in vivo.
Series [12] in a line: Oral bioavailability in Sprague-Dawley rat at 5 mg/kg. The class given is ADME, organism-based. The following applies: in vivo.
The nature of series [13]: Terminal half life in Sprague-Dawley rat at 5 mg/kg, iv. The class given is ADME, organism-based. The following applies: in vivo, read-out: beta t1/2 (converted).
Series [14] can be described thus: Cmax in Sprague-Dawley rat at 5 mg/kg, po. The following applies: in vivo. Details: dose 5 mg/kg, route oral. The format is ADME, organism-based.
The nature of series [15]: Systemic plasma clearance in Sprague-Dawley rat at 5 mg/kg, iv. The format is ADME, organism-based.
The target of series [16] is T1, Non-receptor tyrosine-protein kinase TYK2. The series can be described thus: Inhibition of Tyk2 (unknown origin).
Series [17] is described as follows: AUC (0 to t) in Sprague-Dawley rat at 5 mg/kg, po. The class given is ADME, organism-based. As to conditions: in vivo.
For series [18], the target named is Tyrosine-protein kinase JAK2 (Homo sapiens) (UniProt O60674). In words: Inhibition of JAK2 (unknown origin) at 10 uM.
Tyrosine-protein kinase JAK2 (Homo sapiens), sequence (O60674 whole entry): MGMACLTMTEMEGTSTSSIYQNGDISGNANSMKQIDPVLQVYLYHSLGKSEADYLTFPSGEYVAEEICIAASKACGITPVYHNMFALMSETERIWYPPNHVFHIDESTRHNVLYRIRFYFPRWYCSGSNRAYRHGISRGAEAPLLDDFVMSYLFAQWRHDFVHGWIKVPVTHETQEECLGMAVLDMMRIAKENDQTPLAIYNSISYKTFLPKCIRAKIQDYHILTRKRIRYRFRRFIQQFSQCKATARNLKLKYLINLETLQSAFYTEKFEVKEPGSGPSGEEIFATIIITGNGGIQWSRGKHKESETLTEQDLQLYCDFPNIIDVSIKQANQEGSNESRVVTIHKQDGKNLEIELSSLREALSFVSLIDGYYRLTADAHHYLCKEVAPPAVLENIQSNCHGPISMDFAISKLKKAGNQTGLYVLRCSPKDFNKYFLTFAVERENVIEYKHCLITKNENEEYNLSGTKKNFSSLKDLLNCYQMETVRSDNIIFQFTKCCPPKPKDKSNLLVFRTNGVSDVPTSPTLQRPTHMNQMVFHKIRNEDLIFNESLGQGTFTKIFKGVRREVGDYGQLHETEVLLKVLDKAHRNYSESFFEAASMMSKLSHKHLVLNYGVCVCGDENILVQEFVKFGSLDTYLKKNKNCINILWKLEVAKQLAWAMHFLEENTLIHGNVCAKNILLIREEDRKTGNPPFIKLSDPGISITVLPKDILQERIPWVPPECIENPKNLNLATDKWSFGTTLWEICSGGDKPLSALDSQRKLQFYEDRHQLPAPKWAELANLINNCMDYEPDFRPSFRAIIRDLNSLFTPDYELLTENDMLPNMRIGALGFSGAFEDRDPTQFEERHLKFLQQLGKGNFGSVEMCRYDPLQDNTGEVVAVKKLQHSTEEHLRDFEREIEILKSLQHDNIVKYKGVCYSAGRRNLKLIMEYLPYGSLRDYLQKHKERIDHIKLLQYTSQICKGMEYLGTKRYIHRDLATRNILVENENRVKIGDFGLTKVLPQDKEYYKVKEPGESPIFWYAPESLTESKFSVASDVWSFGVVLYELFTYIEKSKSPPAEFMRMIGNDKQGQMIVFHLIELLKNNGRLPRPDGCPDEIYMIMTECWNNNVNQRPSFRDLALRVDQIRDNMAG
The target of series [19] is Serine/threonine-protein kinase PAK 4 (Homo sapiens) (UniProt O96013). In words: Inhibition of PAK4 (unknown origin) at 10 uM.
Serine/threonine-protein kinase PAK 4 (Homo sapiens), sequence (O96013 whole entry, looked up): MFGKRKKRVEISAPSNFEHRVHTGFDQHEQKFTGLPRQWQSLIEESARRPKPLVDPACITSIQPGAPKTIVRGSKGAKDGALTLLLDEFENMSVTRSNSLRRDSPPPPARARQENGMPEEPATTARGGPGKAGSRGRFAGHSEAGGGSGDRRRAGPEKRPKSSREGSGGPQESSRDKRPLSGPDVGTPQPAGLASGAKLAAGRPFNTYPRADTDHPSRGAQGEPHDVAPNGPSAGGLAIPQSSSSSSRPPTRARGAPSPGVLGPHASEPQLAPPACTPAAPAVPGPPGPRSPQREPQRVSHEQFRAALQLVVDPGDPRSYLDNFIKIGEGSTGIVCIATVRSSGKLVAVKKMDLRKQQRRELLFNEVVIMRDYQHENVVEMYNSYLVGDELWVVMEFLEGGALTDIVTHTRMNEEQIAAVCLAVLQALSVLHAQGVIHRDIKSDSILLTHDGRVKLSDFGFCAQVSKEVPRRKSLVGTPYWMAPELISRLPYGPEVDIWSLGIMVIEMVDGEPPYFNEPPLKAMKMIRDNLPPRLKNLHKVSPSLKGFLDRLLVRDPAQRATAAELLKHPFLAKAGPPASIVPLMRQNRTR
The target of series [20] is T3, Aurora kinase A (Homo sapiens) (UniProt O14965).
T3 sequence (whole entry): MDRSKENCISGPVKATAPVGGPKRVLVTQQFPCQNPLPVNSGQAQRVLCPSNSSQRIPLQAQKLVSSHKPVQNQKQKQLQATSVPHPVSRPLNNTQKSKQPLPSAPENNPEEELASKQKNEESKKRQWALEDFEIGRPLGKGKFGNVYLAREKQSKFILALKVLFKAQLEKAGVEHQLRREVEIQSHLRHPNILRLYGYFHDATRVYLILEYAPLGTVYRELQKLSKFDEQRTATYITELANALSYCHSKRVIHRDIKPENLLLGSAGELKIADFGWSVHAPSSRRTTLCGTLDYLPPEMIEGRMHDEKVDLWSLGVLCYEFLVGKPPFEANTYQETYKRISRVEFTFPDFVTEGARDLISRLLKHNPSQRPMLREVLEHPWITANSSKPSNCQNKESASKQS
The series can be described thus: Inhibition of aurora-A (unknown origin) at 10 uM.

The nature of series [21]: Cmax in Sprague-Dawley rat at 5 mg/kg, iv. Details: dose 5 mg/kg, route intravenous. The following applies: in vivo. The class given is ADME, organism-based.
Series [22] concerns the target T1, Non-receptor tyrosine-protein kinase TYK2. In words: Inhibition of Tyk2 (unknown origin) at 100 uM.
Series [23] shares this target. In words: Inhibition of Tyk2 (unknown origin) at 30 uM.
The target is the same in series [24]. The series can be described thus: Inhibition of Tyk2 (unknown origin) at 3 uM.

T1 sequence (P29597 whole entry): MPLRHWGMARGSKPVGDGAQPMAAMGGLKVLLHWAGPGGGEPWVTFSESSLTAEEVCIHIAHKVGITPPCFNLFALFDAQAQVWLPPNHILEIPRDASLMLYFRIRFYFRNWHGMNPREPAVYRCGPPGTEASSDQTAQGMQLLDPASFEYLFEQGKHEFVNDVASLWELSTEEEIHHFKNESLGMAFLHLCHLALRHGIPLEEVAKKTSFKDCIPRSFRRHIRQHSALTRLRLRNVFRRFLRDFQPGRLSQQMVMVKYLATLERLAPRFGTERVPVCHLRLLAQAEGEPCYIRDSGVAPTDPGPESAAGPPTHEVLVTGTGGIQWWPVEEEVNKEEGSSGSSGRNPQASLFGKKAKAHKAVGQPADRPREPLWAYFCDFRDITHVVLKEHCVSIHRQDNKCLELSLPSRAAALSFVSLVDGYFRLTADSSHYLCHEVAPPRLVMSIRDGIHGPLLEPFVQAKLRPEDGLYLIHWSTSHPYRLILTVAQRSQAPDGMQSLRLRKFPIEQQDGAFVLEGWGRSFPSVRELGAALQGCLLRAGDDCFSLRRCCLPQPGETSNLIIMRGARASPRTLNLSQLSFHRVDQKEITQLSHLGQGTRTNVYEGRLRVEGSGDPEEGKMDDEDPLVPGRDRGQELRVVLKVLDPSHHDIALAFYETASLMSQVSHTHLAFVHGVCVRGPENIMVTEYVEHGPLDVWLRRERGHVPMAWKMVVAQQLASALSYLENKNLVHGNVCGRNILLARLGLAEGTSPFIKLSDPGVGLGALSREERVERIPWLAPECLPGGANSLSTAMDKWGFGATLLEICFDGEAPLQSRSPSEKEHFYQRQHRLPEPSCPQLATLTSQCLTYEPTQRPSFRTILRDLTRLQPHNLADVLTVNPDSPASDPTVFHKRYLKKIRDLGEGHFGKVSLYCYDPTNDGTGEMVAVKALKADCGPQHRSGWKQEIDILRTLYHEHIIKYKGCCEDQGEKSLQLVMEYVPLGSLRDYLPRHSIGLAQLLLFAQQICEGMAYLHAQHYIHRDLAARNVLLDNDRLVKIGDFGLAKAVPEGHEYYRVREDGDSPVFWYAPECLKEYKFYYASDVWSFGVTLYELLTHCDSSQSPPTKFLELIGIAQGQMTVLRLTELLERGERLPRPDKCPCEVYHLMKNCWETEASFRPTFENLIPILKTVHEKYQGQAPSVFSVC

Regarding `CC(C)c1n[nH]cc1-c1nc2cc(Br)cnc2[nH]1`, the inhibition (usually the percentage by which the read-out fell short of the control) in series [1] was less than 30%.

`CC(C)c1nn(C)cc1-c1nc2c(N3CCN(Cc4cccnc4)CC3)c(Br)cnc2[nH]1`: the inhibition in [2] was more than 90%; in series [18], more than 90%; in series [1], 99%; in series [19], less than 50%; in [20] it was more than 90%. In addition, the MRT – broadly, a mean duration of stay, worked out from the concentration-time curve – in [3] came to 102 min; in series [11], 47.4 min. For the same compound, the Tmax (as a rule, the time from dosing to the highest level) was determined as 4.8 min in series [4] and 19.8 min in series [5]. Besides, the half-life was 105 min in series [6] and 49.8 min in series [13]. Further, the AUC(0-t) (in general, the area under the concentration-time curve up to a stated or last time point) turned out to be 1420 ng·h/mL in [7] and 80 ng·h/mL in series [17]. Further, the AUC(0-inf) – broadly, the area under the concentration-time curve extrapolated to infinity – worked out at 90 ng·h/mL in series [8] and 1430 ng·h/mL in [9]. Also, the Vd in [10] was 2.76 L/kg. Also, in series [12], the bioavailability (as a rule, dose-corrected exposure relative to a reference, in per cent) amounted to 6.07%. The Cmax (usually the peak of the concentration-time curve) is 70 ng/mL in [14] and 1340 ng/mL in [21]. Besides, the clearance (commonly a measure of how efficiently the substance is removed, as volume per time) in series [15] is 59 mL/min/kg. 10 nM corresponded to half-maximal inhibition in series [16] (IC50).

Regarding `CC(C)c1nn(-c2ccccc2)cc1-c1nc2cc(Br)cnc2[nH]1`, the inhibition in series [1] is 38%.

Regarding `CC(C)c1nn(C)cc1-c1nc2cc(Br)cnc2[nH]1`, the inhibition in series [22] worked out at 97%; in [23] it was 92%; in [24], 60%; in [1], 83%.
